# Test results from article PMC11062899, “De novo development of small cyclic peptides that are orally bioavailable” (Nature Chemical Biology, 2023).
# Values joined by “and” are separate entries in the source; they are usually repeats but may differ in a detail not shown here. Identical values can stand only once.
# Key:
# human α-thrombin = human α-thrombin (Homo sapiens, UniProt P00734); test: Protease inhibition, Ki for human α-thrombin (fluorogenic substrate Z-Gly-Gly-Arg-AMC); type: biochemical; details: replicates R1-R3
# Summary of the method: (§1)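 Ki values come from Cheng–Prusoff correction of IC50, itself fitted by four-parameter logistic regression of activity versus a no-peptide control. Assays used 2 nM human or 3 nM rat thrombin, 50 μM Z-Gly-Gly-Arg-AMC, 30 min kinetic fluorescence at 25 °C.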
# rat α-thrombin = target: T1, rat α-thrombin (Rattus norvegicus, UniProt P18292); test: Protease inhibition, Ki for rat α-thrombin (fluorogenic substrate Z-Gly-Gly-Arg-AMC); type: biochemical; details: replicates R1-R3
# T1 construct: rat α-thrombin (Molecular Innovations) were used at final concentrations of 2 nM and 3 nM; purchased Molecular Innovations
# Summary of the method: as §1
# [1] = Passive artificial membrane permeability (PAMPA); details: for PAMPA permeability: % permeability: 50 μM, 12–18 h, acceptor concentration relative to equilibrium; for Papp at 50 μM / Permeability% Average / Permeability% R1 / Permeability% R3: PAMPA; for Papp at 50 μM: pH 7.4; for Permeability% Average: average of R1-R3; for Permeability% R1: replicate R1; for Permeability% R1 / Permeability% R3: TIC of top well sample relative to sample at theoretical equilibrium; for Permeability% R3: replicate R3
# porcine pepsin = target: T2, porcine pepsin (Sus scrofa, UniProt P00791); test: Peptide stability in simulated gastric fluid (SGF); type: in vitro ADME; details: for SGF stability, Residual peptide Average / SGF stability, Residual peptide: after 8 h vs 0 h (TIC); for SGF stability, Residual peptide Average: average of R1-R3; for SGF stability, Residual peptide: single replicates R1-R3; for remaining at 8 h: simulated gi fluid, 37 °C, pH 1.2, read-out: Proteolytic stability: SGF (8 h) % remaining
# T2 construct: 0.32 g of porcine pepsin (Sigma-Aldrich, P7125) was dissolved under gentle agitation; purchased Sigma-Aldrich P7125
# T2 sequence (P00791 60-385): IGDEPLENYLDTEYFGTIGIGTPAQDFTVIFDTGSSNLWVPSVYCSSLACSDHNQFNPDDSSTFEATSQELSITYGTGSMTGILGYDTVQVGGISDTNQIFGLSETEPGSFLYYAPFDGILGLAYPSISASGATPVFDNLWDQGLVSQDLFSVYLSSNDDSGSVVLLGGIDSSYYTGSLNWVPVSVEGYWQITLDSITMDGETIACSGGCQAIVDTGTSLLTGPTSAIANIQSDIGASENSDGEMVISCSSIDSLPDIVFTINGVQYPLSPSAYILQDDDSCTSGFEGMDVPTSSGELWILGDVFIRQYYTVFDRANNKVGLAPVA
# Summary of the method: (§2)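 Peptide from a 1 mM DMSO stock was added to fluid pre-warmed at 37 °C. SGF was pH 1.2 NaCl with porcine pepsin (0.32 g per 100 ml), and SIF was pH 6.8 potassium phosphate with porcine pancreatin (1 g per 100 ml). Supernatant peptide was quantified by LC–MS, with residual expressed as T1/T0.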
# [2] = Metabolic stability in rat liver microsomes (RLMs); details: rat, microsomes
# porcine pancreatin = test: Peptide stability in simulated intestinal fluid (SIF); type: in vitro ADME; details: after 8 h vs 0 h (TIC); for SIF stability, Residual peptide Average: average of R1-R3
# Summary of the method: as §2
# [3] = as above; type: in vitro ADME, porcine; details: simulated gi fluid; 8 h, 37 °C, pH 6.8; read-out: Proteolytic stability: SIF (8 h) % remaining
# Summary of the method: as §2
# [4] = peptide 1.33E+02 uM, slope of proteolytic substrate cleavage over time
# [5] = CL (ul/min/mg protein) R1, RLM CL, replicate R1
# [6] = CL (ul/min/mg protein) R2, RLM CL, replicate R2
# [7] = CL (ul/min/mg protein) R3, RLM CL, replicate R3
# [8] = Half Life (min) R1, RLM metabolic stability, replicate R1, 0-60 min
# [9] = Half Life (min) R2, RLM metabolic stability, replicate R2, 0-60 min
# [10] = Half Life (min) R3, RLM metabolic stability, replicate R3, 0-60 min
# [11] = Metabolic stability: Half life T1/2 (min), RLMs, mean and SD, three measurements
# [12] = Metabolic stability: RLM CL (ul/min/mg), RLMs, mean and SD, three measurements
compound,measurement,setting,value
O=C1NCCSCc2cccc(n2)CSC[C@H](NC(=O)c2ccc(Cl)s2)C(=O)N[C@@H](CO)C(=O)NCc2ccc1cc2 [compound 25],"Human alpha thrombin inhibition, slope normalized to DMSO",human α-thrombin; peptide 1.02E-03 uM,94.7 and 95.3 and 98.5
same,"Human alpha thrombin inhibition, slope normalized to DMSO",human α-thrombin; peptide 1.04E+00 uM,75.5 and 74.4 and 76.2
same,"Human alpha thrombin inhibition, slope normalized to DMSO",human α-thrombin; peptide 1.27E-04 uM,97.4 and 68.3 and 98.0
same,"Human alpha thrombin inhibition, slope normalized to DMSO",human α-thrombin; peptide 1.30E-01 uM,93.0 and 91.1 and 92.8
same,"Human alpha thrombin inhibition, slope normalized to DMSO",human α-thrombin; [4],13.5 and 15.1 and 12.6
same,"Human alpha thrombin inhibition, slope normalized to DMSO",human α-thrombin; peptide 1.63E-02 uM,97.4 and 90.6 and 97.7
same,"Human alpha thrombin inhibition, slope normalized to DMSO",human α-thrombin; peptide 1.67E+01 uM,26.1 and 29.0 and 29.2
same,"Human alpha thrombin inhibition, slope normalized to DMSO",human α-thrombin; peptide 2.03E-03 uM,98.6 and 102.5 and 100.6
same,"Human alpha thrombin inhibition, slope normalized to DMSO",human α-thrombin; peptide 2.08E+00 uM,73.0 and 60.5 and 66.8
same,"Human alpha thrombin inhibition, slope normalized to DMSO",human α-thrombin; peptide 2.54E-04 uM,97.8 and 93.6 and 92.8
same,"Human alpha thrombin inhibition, slope normalized to DMSO",human α-thrombin; peptide 2.60E-01 uM,88.6 and 90.7 and 89.6
same,"Human alpha thrombin inhibition, slope normalized to DMSO",human α-thrombin; peptide 3.18E-05 uM,97.1 and 94.4 and 99.6
same,"Human alpha thrombin inhibition, slope normalized to DMSO",human α-thrombin; peptide 3.26E-02 uM,101.4 and 92.5 and 97.5
same,"Human alpha thrombin inhibition, slope normalized to DMSO",human α-thrombin; peptide 3.33E+01 uM,14.8 and 16.8 and 15.8
same,"Human alpha thrombin inhibition, slope normalized to DMSO",human α-thrombin; peptide 4.07E-03 uM,99.3 and 94.9 and 93.4
same,"Human alpha thrombin inhibition, slope normalized to DMSO",human α-thrombin; peptide 4.17E+00 uM,57.1 (2×) and 55.7
same,"Human alpha thrombin inhibition, slope normalized to DMSO",human α-thrombin; peptide 5.09E-04 uM,99.4 and 94.7 and 120.6
same,"Human alpha thrombin inhibition, slope normalized to DMSO",human α-thrombin; peptide 5.21E-01 uM,84.0 and 81.7 and 83.0
same,"Human alpha thrombin inhibition, slope normalized to DMSO",human α-thrombin; peptide 6.36E-05 uM,93.6 and 95.3 and 99.3
same,"Human alpha thrombin inhibition, slope normalized to DMSO",human α-thrombin; peptide 6.51E-02 uM,95.9 and 74.7 and 94.1
same,"Human alpha thrombin inhibition, slope normalized to DMSO",human α-thrombin; peptide 6.67E+01 uM,13.4 and 15.6 and 21.8
same,"Human alpha thrombin inhibition, slope normalized to DMSO",human α-thrombin; peptide 8.14E-03 uM,96.7 and 95.4 and 97.4
same,"Human alpha thrombin inhibition, slope normalized to DMSO",human α-thrombin; peptide 8.33E+00 uM,44.0 and 41.9 and 43.6
same,"Rat alpha thrombin inhibition, slope normalized to DMSO",rat α-thrombin; [4],3.8 and 4.8 and 16.3
same,"Rat alpha thrombin inhibition, slope normalized to DMSO",rat α-thrombin; peptide 1.67E+01 uM,8.5 and 7.5 and 19.4
same,"Rat alpha thrombin inhibition, slope normalized to DMSO",rat α-thrombin; peptide 2.08E+00 uM,35.4 and 36.0 and 40.9
same,"Rat alpha thrombin inhibition, slope normalized to DMSO",rat α-thrombin; peptide 3.33E+01 uM,4.1 and 4.6 and 17.1
same,"Rat alpha thrombin inhibition, slope normalized to DMSO",rat α-thrombin; peptide 4.17E+00 uM,23.4 and 23.3 and 26.8
same,"Rat alpha thrombin inhibition, slope normalized to DMSO",rat α-thrombin; peptide 6.67E+01 uM,3.8 and 4.6 and 15.5
same,"Rat alpha thrombin inhibition, slope normalized to DMSO",rat α-thrombin; peptide 8.33E+00 uM,13.7 and 14.0 and 21.8
same,PAMPA permeability: % permeability,[1],0.62 ± 0.14%
same,Papp at 50 μM,[1],0.0407 ×10⁻⁶ cm/s
same,Permeability% Average,[1],0.6%
same,Permeability% R1,[1],0.77%
same,Permeability% R3,[1],0.57%
same,"SGF stability, Residual peptide Average",porcine pepsin,101.05
same,"SGF stability, Residual peptide",porcine pepsin,110.75 and 95.01 and 97.38
same,remaining at 8 h,porcine pepsin,101 ± 8%
same,microsomal CLint,[2]; [5],99.1 µL/min/mg
same,microsomal CLint,[2]; [6],76.5 µL/min/mg
same,microsomal CLint,[2]; [7],112 µL/min/mg
same,half-life,[2]; [8],14 min
same,half-life,[2]; [9],18.1 min
same,half-life,[2]; [10],12.4 min
same,half-life,[2]; [11],14.8 ± 2.4 min
same,microsomal CLint,[2]; [12],96 ± 15 µL/min/mg
same,"SIF stability, Residual peptide Average",porcine pancreatin,93.12
same,"SIF stability, Residual peptide",porcine pancreatin; single replicates R1-R3,102.84 and 84.15 and 92.36
same,remaining at 8 h,[3],93 ± 9%
O=C1CC2CCN(CC2)C(=O)[C@H](Cc2ccccc2)NC(=O)[C@@H](NC(=O)c2ccc(Cl)s2)CSCc2cccc(n2)CSCCN1 [compound 15],"Human alpha thrombin inhibition, slope normalized to DMSO",human α-thrombin; peptide 1.02E-03 uM,100.6 and 98.3 and 99.0
same,"Human alpha thrombin inhibition, slope normalized to DMSO",human α-thrombin; peptide 1.04E+00 uM,68.1 and 68.7 and 68.9
same,"Human alpha thrombin inhibition, slope normalized to DMSO",human α-thrombin; peptide 1.27E-04 uM,101.1 and 97.6 and 104.9
same,"Human alpha thrombin inhibition, slope normalized to DMSO",human α-thrombin; peptide 1.30E-01 uM,90.7 and 100.7 and 97.5
same,"Human alpha thrombin inhibition, slope normalized to DMSO",human α-thrombin; [4],4.8 and 5.5 and 1.6
same,"Human alpha thrombin inhibition, slope normalized to DMSO",human α-thrombin; peptide 1.63E-02 uM,110.6 and 96.8 and 100.1
same,"Human alpha thrombin inhibition, slope normalized to DMSO",human α-thrombin; peptide 1.67E+01 uM,12.1 and 12.4 and 14.6
same,"Human alpha thrombin inhibition, slope normalized to DMSO",human α-thrombin; peptide 2.03E-03 uM,101.2 and 99.3 and 100.0
same,"Human alpha thrombin inhibition, slope normalized to DMSO",human α-thrombin; peptide 2.08E+00 uM,65.0 and 52.9 and 51.5
same,"Human alpha thrombin inhibition, slope normalized to DMSO",human α-thrombin; peptide 2.54E-04 uM,99.3 and 97.7 and 101.2
same,"Human alpha thrombin inhibition, slope normalized to DMSO",human α-thrombin; peptide 2.60E-01 uM,95.0 and 89.4 and 94.7
same,"Human alpha thrombin inhibition, slope normalized to DMSO",human α-thrombin; peptide 3.18E-05 uM,97.8 and 94.7 and 100.8
same,"Human alpha thrombin inhibition, slope normalized to DMSO",human α-thrombin; peptide 3.26E-02 uM,94.1 and 101.2 and 106.3
same,"Human alpha thrombin inhibition, slope normalized to DMSO",human α-thrombin; peptide 3.33E+01 uM,8.2 and 10.1 and 12.2
same,"Human alpha thrombin inhibition, slope normalized to DMSO",human α-thrombin; peptide 4.07E-03 uM,102.2 and 130.5 and 101.9
same,"Human alpha thrombin inhibition, slope normalized to DMSO",human α-thrombin; peptide 4.17E+00 uM,34.4 and 33.3 and 35.3
same,"Human alpha thrombin inhibition, slope normalized to DMSO",human α-thrombin; peptide 5.09E-04 uM,99.7 and 107.7 and 101.3
same,"Human alpha thrombin inhibition, slope normalized to DMSO",human α-thrombin; peptide 5.21E-01 uM,82.1 and 87.9 and 83.3
same,"Human alpha thrombin inhibition, slope normalized to DMSO",human α-thrombin; peptide 6.36E-05 uM,100.1 and 97.7 and 104.2
same,"Human alpha thrombin inhibition, slope normalized to DMSO",human α-thrombin; peptide 6.51E-02 uM,100.7 and 90.2 and 100.6
same,"Human alpha thrombin inhibition, slope normalized to DMSO",human α-thrombin; peptide 6.67E+01 uM,5.7 and 5.6 and 9.1
same,"Human alpha thrombin inhibition, slope normalized to DMSO",human α-thrombin; peptide 8.14E-03 uM,98.8 and 99.9 and 103.6
same,"Human alpha thrombin inhibition, slope normalized to DMSO",human α-thrombin; peptide 8.33E+00 uM,23.8 and 18.1 and 21.3
same,"Rat alpha thrombin inhibition, slope normalized to DMSO",rat α-thrombin; [4],1.8 and 3.0 and 9.6
same,"Rat alpha thrombin inhibition, slope normalized to DMSO",rat α-thrombin; peptide 1.67E+01 uM,7.1 and 6.4 and 13.3
same,"Rat alpha thrombin inhibition, slope normalized to DMSO",rat α-thrombin; peptide 2.08E+00 uM,34.4 and 33.4 and 32.9
same,"Rat alpha thrombin inhibition, slope normalized to DMSO",rat α-thrombin; peptide 3.33E+01 uM,4.1 (2×) and 10.8
same,"Rat alpha thrombin inhibition, slope normalized to DMSO",rat α-thrombin; peptide 4.17E+00 uM,21.9 and 19.6 and 23.7
same,"Rat alpha thrombin inhibition, slope normalized to DMSO",rat α-thrombin; peptide 6.67E+01 uM,2.7 and 2.8 and 9.5
same,"Rat alpha thrombin inhibition, slope normalized to DMSO",rat α-thrombin; peptide 8.33E+00 uM,12.5 and 11.7 and 18.6
same,PAMPA permeability: % permeability,[1],20 ± 10%
same,Papp at 50 μM,[1],1.35 ×10⁻⁶ cm/s
same,Permeability% Average,[1],20.3%
same,Permeability% R1,[1],29.62%
same,Permeability% R3,[1],22.19%
same,"SGF stability, Residual peptide Average",porcine pepsin,98.62
same,"SGF stability, Residual peptide",porcine pepsin,100.84 and 98.47 and 96.53
same,remaining at 8 h,porcine pepsin,99 ± 2%
same,microsomal CLint,[2]; [5],87.8 µL/min/mg
same,microsomal CLint,[2]; [6],76.3 µL/min/mg
same,microsomal CLint,[2]; [7],81.9 µL/min/mg
same,half-life,[2]; [8],15.8 min
same,half-life,[2]; [9],18.2 min
same,half-life,[2]; [10],16.9 min
same,half-life,[2]; [11],17 ± 1 min
same,microsomal CLint,[2]; [12],82 ± 5 µL/min/mg
same,"SIF stability, Residual peptide Average",porcine pancreatin,87.61
same,remaining at 8 h,[3],88 ± 18%
